The values that follow come from patent US20090069356A1, “USE OF ANILINOPYRIMIDINES IN WOOD PROTECTION” (priority 2004, published 2009).

The subject of test [1] is Aspergillus niger and A. carbonarius. Particulars: vineyards; Tjamos et al., Journal of Phytopathology (2004); cited from earlier work.
Test [2] concerns Chaetomium globosum CEB 1218.2 (Cg). Briefly: Poison plate assay. It counts as cell-based. Particulars: evaluated after one week. Details: key: When no fungal growth was observed, the abbreviation “ng” was used.
For test [3], the system named is Aureobasidium pullulans P 268 (Ap1). Briefly: Poison plate assay. It is filed as cell-based. Conditions: 168 h, evaluated after one week.
In test [4] the test system is Aspergillus niger CBS 554.65 (An). Description: Poison plate assay. It is filed as cell-based. Particulars: CBS554, 168 h, evaluated after one week.
The subject of test [5] is Chaetomium globosum ATCC 6205. Description: Stick test on treated Scots Pine. It is filed as cell-based. Conditions: 3 weeks exposure. The source says: (§1) [table] […] GA medium was used as a less nutrient-rich alternative to PDA, in order to prevent the test fungi from bypassing the specific mode of action of anilinopyrimidines like cyprodinil, pyrimethanil and […].
Test [6] deals with Aspergillus niger CBS 554.65. Briefly: Stick test on treated Scots Pine. It is filed as cell-based. Particulars: 3 weeks exposure.
Source text: as §1

The test system of test [7] is Trichoderma viride CBS 189.79. Description: Stick test on treated Scots Pine. It counts as cell-based. Conditions: 3 weeks exposure.
Source text: as §1

Test [8] concerns Cladosporium cladosporioides IHEM 3795. Briefly: Stick test on treated Scots Pine. It is filed as cell-based. Conditions: 3 weeks exposure.
Source text: as §1

Test [9] has as its system Coniophora puteana BAM 15. Briefly: Stick test on treated Scots Pine. It is filed as cell-based. Conditions: 3 weeks exposure.
Source text: as §1

Test [10] has as its system Coriolus versicolor CTB 863A. Description: Stick test on treated Scots Pine. It counts as cell-based. Particulars: 3 weeks exposure.
Source text: as §1

Test [11] relates to Humicola grisea MG 28. Description: Stick test on treated Scots Pine. Particulars: 3 weeks exposure. It counts as cell-based.
Source text: as §1

The subject of test [12] is Trichoderma sp. isol. MB test. Description: Stick test on treated Scots Pine. It counts as cell-based. Conditions: 3 weeks exposure.
Source text: as §1

Test [13] relates to Aureobasidium pullulans P 268. Description: Stick test on treated Scots Pine. It is filed as cell-based. Particulars: 3 weeks exposure.
Source text: as §1

In test [14] the test system is Humicola grisea MG 28 (Hg). Description: Poison plate assay. It is filed as cell-based. Conditions: 168 h, evaluated after one week.

Values after ≈ are worked out from the molar mass of the structure shown.

For `COC(=O)Nc1nc2ccccc2[nH]1` [carbendazim], in test [1], the “Control of Aspergillus spp. infection” value is on record as “ineffective”.
As a reminder, the MIC is the lowest concentration found to suppress growth. For the compound `Cc1cc(C2CC2)nc(Nc2ccccc2)n1` [cyprodinil, 4-cyclopropyl-6-methyl-N-phenyl-2-pyrimidinamine], the “MIC value, Cg” value in test [2] (medium CDA), in test [2] (medium GA) and in test [2] (medium GGA) was “ng” in each case. The minimum inhibitory concentration (MIC) in test [3] (medium CDA) was 5 µg/mL (≈ 22.2 µM); in test [3] (medium GA), 10 µg/mL (≈ 44.4 µM); in [3] (medium GGA) it was 5 µg/mL (≈ 22.2 µM); in [4] (medium CDA), less than 0.6 µg/mL; in test [4] (medium GA), less than 0.6 µg/mL; in test [4] (medium GGA) it was less than 0.6 µg/mL. Besides, the MIC is 10 µg/mL (≈ 44.4 µM) in test [14] (medium CDA), 10 µg/mL (≈ 44.4 µM) in test [14] (medium GA) and 20 µg/mL (≈ 88.8 µM) in test [14] (medium GGA). Also, the entries for the “Threshold value, C. globosum” value in [5] (medium GA) and in [5] (medium PDA) were 100-200 ppm and 1600-3200 ppm, respectively. Moreover, the “Threshold value, A. niger” value in test [6] (medium GA) and in test [6] (medium PDA) was more than 6400 ppm in each case. In addition, the “Threshold value, T. viride” value in test [7] (medium GA) and in test [7] (medium PDA) was more than 6400 ppm in each case. The “Threshold value, C. cladosporioides” value is 800-1600 ppm in test [8] (medium GA) and more than 6400 ppm in test [8] (medium PDA). Also, the “Threshold value, C. puteana” value was 3200-6400 ppm in test [9] (medium GA) and more than 6400 ppm in test [9] (medium PDA). The “Threshold value, C. versicolor” value in test [10] (medium GA) and in test [10] (medium PDA) was more than 6400 ppm in each case. Also, the figures for the “Threshold value, H. grisea” value in test [11] (medium GA) and in test [11] (medium PDA) were 200-400 ppm and 800-1600 ppm, respectively. Further, the “Threshold value, T. sp.” value in test [12] (medium GA) and in [12] (medium PDA) was more than 6400 ppm each time. Further, the results for the “Threshold value, A. pullulans” value in test [13] (medium GA) and in test [13] (medium PDA) were 3200-6400 ppm and more than 6400 ppm, respectively.
On to `CC#Cc1cc(C)nc(Nc2ccccc2)n1` [mepanipyrim, 4-methyl-6-(prop-1-ynyl)-N-phenyl-2-pyrimidinamine], for which the “MIC value, Cg” value in [2] (medium CDA), in test [2] (medium GA) and in test [2] (medium GGA) was “ng” throughout. In addition, the minimal inhibitory concentration (MIC) in [3] (medium CDA) was 10 µg/mL (≈ 44.8 µM); in [3] (medium GA), 20 µg/mL (≈ 89.6 µM); in test [3] (medium GGA) it was 20 µg/mL (≈ 89.6 µM); in test [4] (medium CDA), less than 0.6 µg/mL; in [4] (medium GA) it was less than 0.6 µg/mL; in [4] (medium GGA), less than 0.6 µg/mL. The MIC stood at 10 µg/mL (≈ 44.8 µM) in test [14] (medium CDA), 20 µg/mL (≈ 89.6 µM) in [14] (medium GA) and 20 µg/mL (≈ 89.6 µM) in test [14] (medium GGA). Moreover, the “Threshold value, C. globosum” value in [5] (medium GA) is on record as 200-400 ppm; in [5] (medium PDA), more than 6400 ppm. Further, the “Threshold value, A. niger” value is given as more than 6400 ppm in test [6] (medium GA) and 1600-3200 ppm in test [6] (medium PDA). Also, the “Threshold value, T. viride” value in test [7] (medium GA) and in test [7] (medium PDA) was more than 6400 ppm in each case. The “Threshold value, C. cladosporioides” value in [8] (medium GA) and in test [8] (medium PDA) was more than 6400 ppm each time. The “Threshold value, C. puteana” value in [9] (medium GA) and in test [9] (medium PDA) was more than 6400 ppm throughout. The “Threshold value, C. versicolor” value in [10] (medium GA) and in [10] (medium PDA) was more than 6400 ppm throughout. Further, the “Threshold value, H. grisea” value in [11] (medium GA) is 200-400 ppm; in test [11] (medium PDA) it was more than 6400 ppm. Also, the “Threshold value, T. sp.” value in test [12] (medium GA) and in test [12] (medium PDA) was more than 6400 ppm throughout. Moreover, the “Threshold value, A. pullulans” value in test [13] (medium GA) and in test [13] (medium PDA) was more than 6400 ppm in each case.
`Cc1cc(C)nc(Nc2ccccc2)n1` [pyrimethanil, 4,6-dimethyl-N-phenyl-2-pyrimidinamine]: the “MIC value, Cg” value in test [2] (medium CDA), in test [2] (medium GA) and in test [2] (medium GGA) was “ng” in each case. For the same compound, the MIC in [3] (medium CDA) was 20 µg/mL (≈ 100 µM); in [3] (medium GA), 20 µg/mL (≈ 100 µM); in test [3] (medium GGA), 20 µg/mL (≈ 100 µM); in test [4] (medium CDA), less than 0.6 µg/mL; in [4] (medium GA) it was less than 0.6 µg/mL; in test [4] (medium GGA) it was 20 µg/mL (≈ 100 µM). Also, the MIC in [14] (medium CDA), in test [14] (medium GA) and in test [14] (medium GGA) was more than 20 µg/mL in each case. Moreover, the figures for the “Threshold value, C. globosum” value in [5] (medium GA) and in test [5] (medium PDA) were 800-1600 ppm and more than 6400 ppm, respectively. The “Threshold value, A. niger” value in [6] (medium GA) and in test [6] (medium PDA) was more than 6400 ppm in each case. The “Threshold value, T. viride” value in test [7] (medium GA) and in test [7] (medium PDA) was more than 6400 ppm in each case. The “Threshold value, C. cladosporioides” value in test [8] (medium GA) was 1600-3200 ppm; in test [8] (medium PDA), more than 6400 ppm. For the same compound, the “Threshold value, C. puteana” value in test [9] (medium GA) and in [9] (medium PDA) was more than 6400 ppm in each case. Also, the “Threshold value, C. versicolor” value in [10] (medium GA) and in test [10] (medium PDA) was more than 6400 ppm in each case. For the same compound, the “Threshold value, H. grisea” value in test [11] (medium GA) is given as 800-1600 ppm; in [11] (medium PDA) it was 1600-3200 ppm. Also, the “Threshold value, T. sp.” value in test [12] (medium GA) and in [12] (medium PDA) was more than 6400 ppm in each case. Moreover, the “Threshold value, A. pullulans” value is 1600-3200 ppm in test [13] (medium GA) and more than 6400 ppm in test [13] (medium PDA).
